Results: patent US20180064808A1, “COMBINATION THERAPY OF BISPECIFIC ANTIBODIES SPECIFIC FOR FAP AND DR5 AND CHEMOTHERAPEUTIC AGENTS” (Hoffmann-La Roche Inc., priority 2014, published 2018)
Read-outs that look alike come from different tables or passages of the source.

Experiments:
FAP = assay: Binding mode, specificity and species cross-reactivity of FAP binder 28H1
HT29 = assay: Combination screen CRC cell lines (CellTiter-Glo); type: cell-based; conditions: for Fold change IC50 (DR5 ab mono vs combo) / % max. inhibition (combo): n.s. = not significant; for % max. inhibition (combo): second figure of mono/combo
Protocol: (§1) A panel of CRC and PDAC cell lines was assessed and combination partners of potential clinical relevance for the respective tumor indications were used for evaluation of combination effects (CRC: irinotecan, oxaliplatin, 5-FU, MDM2 inhibitor (RG7388), Bcl-2 inhibitor (ABT199); PDAC: Abraxane, Paclitaxel, Gemcitabine, Doxorubicin, MDM2i (RG7388), Bc12i (ABT199), Bortezomib, Cyclopamine, PARP inhibitor (PJ34)).
(§2) Cells were seeded (numbers vary depending on the cell line) in black 96-well microplate with clear, flat bottom and incubated overnight at 37° C. and 5% CO2. After checking the adherence/confluence of cells, the medium was removed and 100 μl of fresh medium containing the corresponding compound was added to each well. A sequential dilution series (1:4) of 8 concentrations per compound (n=3) were used. Corresponding DMSO concentration and media alone were used as controls.
(§3) After incubation for 3 days at 37° C. and 5% CO2, 100 μl per well CellTiter-Glo reagent (Promega) was added to the plate. Luminescence was measured after 30 minutes agitation at room temperature. IC50-values were calculated with XL-Fit software. Each experiment with one compound was repeated at least twice.
(§4) Cells were seeded (numbers vary depending on the cell line) in black 96-well microplate with clear, flat bottom and incubated overnight at 37° C. and 5% CO2. After checking the adherence/confluence of cells, the medium was removed and 100 μl of fresh medium containing the corresponding compound or combination was added to each well.
(§5) A sequential 1:3 dilution series of 9 concentrations of Drozitumab/anti-human-Fc was done on a 96-well PP-V-bottom microplate (n=6). […] 25 μl/well of the Drozitumab/anti-human-Fc series were then transferred to the cells.
(§6) After incubation for 3 days at 37° C. and 5% CO2 100 μl per well CellTiter-Glo reagent (Promega) were given to the plates. Luminescence was measured after 30 minutes agitation at room temperature.
(§7) For each concentration of Drozitumab/anti-human-Fc and Drozitumab/anti-human-Fc+compound triplicates were done on the same plate and each experiment was repeated at least twice.

SW480 = assay: Combination screen CRC cell lines (CellTiter-Glo); type: cell-based; conditions: for % max. inhibition (mono): first figure of mono/combo; for % max. inhibition (combo): second figure of mono/combo
Protocol: as §1, §2, §3, §4, §5, §6, §7

HCT116 = assay: Combination screen CRC cell lines (CellTiter-Glo); type: cell-based, human; conditions: for % max. inhibition (mono): first figure of mono/combo; for % max. inhibition (combo): second figure of mono/combo
Protocol: as §1, §2, §3, §4, §5, §6, §7

Aspc1 = assay: Combination screen PDAC cell lines (CellTiter-Glo); type: cell-based; conditions: for IC50: Homo sapiens, 72 h, agent alone, 3 days, read-out: IC50 monotherapy
Protocol: as §1, §2, §3, §4, §5, §6, §7

Bxpc3 = assay: Combination screen PDAC cell lines (CellTiter-Glo); type: cell-based; conditions: for IC50: Homo sapiens, BXPC-3, 72 h, agent alone, 3 days, read-out: IC50 monotherapy
Protocol: as §1, §2, §3, §4, §5, §6, §7

Capan2 = assay: Combination screen PDAC cell lines (CellTiter-Glo); type: cell-based; conditions: for % max. inhibition (mono): first figure of mono/combo
Protocol: as §1, §2, §3, §4, §5, §6, §7

Panc1 = assay: Combination screen PDAC cell lines (CellTiter-Glo); type: cell-based; conditions: for IC50: Homo sapiens, PANC-1, 72 h, 3 days
Protocol: as §1, §2, §3, §4, §5, §6, §7

[1] = Aspc1, second figure of mono/combo, n.s. = not significant
[2] = Bxpc3, second figure of mono/combo, n.s. = not significant
[3] = Capan2, second figure of mono/combo, n.s. = not significant
[4] = Panc1, second figure of mono/combo, n.s. = not significant
[5] = Bxpc3, first figure of mono/combo
[6] = Panc1, agent alone, read-out: IC50 monotherapy

Row | Molecule | Fold change IC50 (DR5 ab mono vs combo) (HT29) | % max. inhibition (combo) (HT29) | % max. inhibition (mono) (SW480) [%] | Fold change IC50 (DR5 ab mono vs combo) (SW480; n.s. = not significant) | % max. inhibition (combo) (SW480) [%] | % max. inhibition (mono) (HCT116) [%] | % max. inhibition (combo) (HCT116) [%] | Fold change IC50 (DR5 ab mono vs combo) (Aspc1; Aspc1, n.s. = not significant) | % max. inhibition (combo) (Aspc1; [1]) | Fold change IC50 (DR5 ab mono vs combo) (Bxpc3; Bxpc3, n.s. = not significant) | % max. inhibition (combo) (Bxpc3; [2]) | % max. inhibition (mono) (Capan2; Capan2) [%] | % max. inhibition (combo) (Capan2; [3]) [%] | Fold change IC50 (DR5 ab mono vs combo) (Panc1; Panc1, n.s. = not significant) | % max. inhibition (combo) (Panc1; [4]) | IC50 (Aspc1; Aspc1) [nM] | % max. inhibition (mono) (Bxpc3; [5]) [%] | IC50 (Bxpc3; Bxpc3) [nM] | IC50 (Panc1; [6]) [nM] | further results
1 | 28H1: FAP binder, VH SEQ ID NO. 15 / VL SEQ ID NO. 16, described in WO 2012/020006 |  |  |  |  |  |  |  |  |  |  |  |  |  |  |  |  |  |  |  | Species Cross-Reactivity (FAP): Human, cyno, murine; Binding Mode (FAP; cell wraps r13-r15: No interference with signaling/protease function, conformational epitope): conformational epitope; Specificity (FAP; cell wraps r17-r18: No binding to hu DPP-IV (CD26, closest FAP homologue)): No binding to hu DPP-IV
2 | O=c1[nH]cc(F)c(=O)[nH]1 [5-FU, 5-Fluoro-1H,3H-pyrimidine-2,4-dione] | 25 | 85% | 50 | 70000 | 65 | 60 | 90 |  |  |  |  |  |  |  |  |  |  |  |  | IC50 (HT29; Homo sapiens, HT-29, 72 h, agent alone, 3 days, read-out: IC50 monotherapy): 2500 nM; % max. inhibition (mono) (HT29; first figure of mono/combo): 50%; IC50 (SW480; Homo sapiens, 72 h, DR5 ab + Fc titrated in combination with 1x IC50 of the named compound, 3 days, n.s. = not significant, read-out: IC50 combo): 0.002 nM; IC50 (HCT116; Homo sapiens, HCT-116, 72 h, agent alone, 3 days, read-out: IC50 monotherapy): 2500 nM
3 | CC1(C)CCC(CN2CCN(c3ccc(C(=O)NS(=O)(=O)c4ccc(NCC5CCOCC5)c([N+](=O)[O-])c4)c(Oc4cnc5[nH]ccc5c4)c3)CC2)=C(c2ccc(Cl)cc2)C1 [Bcl2i (ABT199), (4-(4-{[2-(4-chlorophenyl)-4,4-dimethylcyclohex-1-en-1-yl]methyl}piperazin-1-yl)-N-({3-nitro-4-[(tetrahydro-2H-pyran-4-ylmethyl)amino]phenyl}sulfonyl)-2-(1H-pyrrolo[2,3-b]pyridin-5-yloxy)benzamide)] | 3 | n.s. | 5 | n.s. | 30 | 50 | 80 | n.s. | n.s. | n.s. | n.s. | 20 | 60 | n.s. | n.s. |  |  |  |  | IC50 combo (SW480; DR5 ab + Fc titrated in combination with 1x IC50 of the named compound, 3 days, n.s. = not significant): n.s.; Fold change IC50 (DR5 ab mono vs combo) (HCT116): 500
4 | CC(C)C[C@H](NC(=O)[C@H](Cc1ccccc1)NC(=O)c1cnccn1)B(O)O [Bortezomib, [(1R)-3-methyl-1-[(2S)-3-phenyl-2-(pyrazin-2-ylformamido)propanamido]butyl]boronic acid] |  |  |  |  |  |  |  | n.s. | n.s. | 8 | 100% | 40 | 95 | n.s. | n.s. | 30 | 60 | 10 | 8.5 | IC50 (Capan2; Homo sapiens, Capan-2, 72 h, Capan2, agent alone, 3 days, read-out: IC50 monotherapy): 20 nM
5 | CC1=C2C[C@H]3[C@@H](CC=C4C[C@@H](O)CC[C@@]43C)[C@@H]2CC[C@]12O[C@@H]1C[C@H](C)CN[C@H]1[C@H]2C [Cyclopamine, (3β,23R)-17,23-Epoxyveratraman-3-ol] |  |  |  |  |  |  |  |  |  |  |  |  |  |  |  |  |  |  |  | % max. inhibition (combo) (Aspc1): n.s.; % max. inhibition (combo) (Bxpc3): 65/95%; % max. inhibition (mono) (Bxpc3): 65/95%; % max. inhibition (combo) (Capan2): n.s.; % max. inhibition (combo) (Panc1): n.s.
6 | Nc1ccn([C@@H]2O[C@H](CO)[C@@H](O)C2(F)F)c(=O)n1 [Gemcitabine, 4-amino-1-(2-deoxy-2,2-difluoro-β-D-erythro-pentofuranosyl)pyrimidin-2(1H)-on] |  |  |  |  |  |  |  | 50 | 55% | 15 | 80% | 35 | 60 | 5 | 75% | 2000 | 45 | 30 | 2000 | % max. inhibition (mono) (Aspc1; Aspc1, first figure of mono/combo): 25%; IC50 (Panc1; Panc1, DR5 ab + Fc titrated in combination with 1x IC50 of the named compound, read-out: IC50 Combo): 52.9 nM; % max. inhibition (mono) (Panc1; Panc1, first figure of mono/combo): 50%
